From US20230085307A1, “PYRIDAZINONE COMPOUND AND HERBICIDE” (NISSAN CHEMICAL CORPORATION, priority 2019, published 2023)

Columns and labels:
late watergrass = experiment: Test Example 1: herbicidal activity, application before weed generation under submerged conditions (Table 16, symbol A); type: in vivo, late watergrass (Echinochloa oryzicola); conditions: 320 g/ha applied herbicide
In short: (§1)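 Submerged Wagner pots (alluvial soil, 4 cm water) sown with weed seeds and planted with 2.5-leaf rice seedlings; emulsifiable concentrate diluted in water applied to water surface on sowing day. Held in greenhouse at 25-30 °C; injury scored 0-5 by herbicidal rate after three weeks.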

Japanese bulrush = experiment: Test Example 1: herbicidal activity, application before weed generation under submerged conditions (Table 16, symbol B); type: in vivo, Japanese bulrush (Schoenoplectus juncoides); conditions: 320 g/ha applied herbicide
In short: as §1

oval-leafed pondweed = experiment: Test Example 1: herbicidal activity, application before weed generation under submerged conditions (Table 16, symbol C); type: in vivo, oval-leafed pondweed (Monochoria vaginalis); conditions: 320 g/ha applied herbicide
In short: as §1

barnyard grass [1] = experiment: Test Example 3: herbicidal effect by foliage application, Wagner pot (Table 18, symbol H); type: in vivo, barnyard grass (Echinochloa crus-galli); conditions: 320 g/ha
In short: (§2)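 Plants were sown in alluvial soil held under 0.1–0.5 cm standing water and grown 14 days in a greenhouse at 25–30 °C. An emulsifiable formulation, water-diluted to the set dose, was then sprayed onto the foliage, and effects were scored three weeks later using previously defined criteria.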

Chinese sprangletop = experiment: Test Example 3: herbicidal effect by foliage application, Wagner pot (Table 18, symbol D); type: in vivo, chinese sprangletop (Leptochloa chinensis); conditions: 320 g/ha
In short: as §2

rice flat sedge = experiment: Test Example 3: herbicidal effect by foliage application, Wagner pot (Table 18, symbol E); type: in vivo, rice flat sedge (Cyperus iria); conditions: 320 g/ha
In short: as §2

southern crabgrass [2] = experiment: Test Example 4: herbicidal effect by soil treatment (Table 19, symbol F); type: in vivo, southern crabgrass (Digitaria ciliaris); conditions: 320 g/ha
In short: (§3)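 Pre-emergence style soil spray: seeds under ~1.5 cm sterilized diluvial soil received a uniform coat of emulsion diluted to the predetermined herbicide amount. Greenhouse 25–30° C; readout at week three on previously defined criteria.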

green foxtail [3] = experiment: Test Example 4: herbicidal effect by soil treatment (Table 19, symbol G); type: in vivo, green foxtail (Setaria viridis); conditions: 320 g/ha
In short: as §3

barnyard grass [4] = experiment: Test Example 4: herbicidal effect by soil treatment (Table 19, symbol H); type: in vivo, barnyard grass (Echinochloa crus-galli); conditions: 320 g/ha
In short: as §3

wild oat [5] = experiment: Test Example 4: herbicidal effect by soil treatment (Table 19, symbol I); type: in vivo, wild oat (Avena fatua); conditions: 320 g/ha
In short: as §3

blackgrass [6] = experiment: Test Example 4: herbicidal effect by soil treatment (Table 19, symbol J); type: in vivo, blackgrass (Alopecurus myosuroides); conditions: 320 g/ha
In short: as §3

Italian ryegrass [7] = experiment: Test Example 4: herbicidal effect by soil treatment (Table 19, symbol K); type: in vivo, Italian ryegrass (Lolium multiflorum); conditions: 320 g/ha
In short: as §3

windgrass [8] = experiment: Test Example 4: herbicidal effect by soil treatment (Table 19, symbol L); type: in vivo, windgrass (Apera spica-venti); conditions: 320 g/ha
In short: as §3

velvetleaf [9] = experiment: Test Example 4: herbicidal effect by soil treatment (Table 19, symbol M); type: in vivo, velvetleaf (Abutilon theophrasti); conditions: 320 g/ha
In short: as §3

redroot pigweed [10] = experiment: Test Example 4: herbicidal effect by soil treatment (Table 19, symbol N); type: in vivo, redroot pigweed (Amaranthus retroflexus); conditions: 320 g/ha
In short: as §3

lambsquarters [11] = experiment: Test Example 4: herbicidal effect by soil treatment (Table 19, symbol O); type: in vivo, lambsquarters (Chenopodium album); conditions: 320 g/ha
In short: as §3

chickweed [12] = experiment: Test Example 4: herbicidal effect by soil treatment (Table 19, symbol P); type: in vivo, common chickweed (Stellaria media); conditions: 320 g/ha
In short: as §3

false cleavers [13] = experiment: Test Example 4: herbicidal effect by soil treatment (Table 19, symbol Q); type: in vivo, false cleavers (Galium spurium); conditions: 320 g/ha
In short: as §3

persian speedwell [14] = experiment: Test Example 4: herbicidal effect by soil treatment (Table 19, symbol R); type: in vivo, Persian speedwell (Veronica persica); conditions: 320 g/ha
In short: as §3

southern crabgrass [15] = experiment: Test Example 5: herbicidal effect by foliage application, plastic box (Table 20, symbol F); type: in vivo, southern crabgrass (Digitaria ciliaris); conditions: foliage application, 320 g/ha, evaluated three weeks after application
In short: (§4)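 Plants were sown into sterilized diluvial soil under about 1.5 cm cover and kept in a greenhouse at 25° C. to 30° C. Fourteen days on, foliage received an even spray of the diluted emulsion. Herbicidal or crop effect was judged three weeks afterwards.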

green foxtail [16] = experiment: Test Example 5: herbicidal effect by foliage application, plastic box (Table 20, symbol G); type: in vivo, green foxtail (Setaria viridis); conditions: foliage application, 320 g/ha, evaluated three weeks after application
In short: as §4

barnyard grass [17] = experiment: Test Example 5: herbicidal effect by foliage application, plastic box (Table 20, symbol H); type: in vivo, barnyard grass (Echinochloa crus-galli); conditions: foliage application, 320 g/ha, evaluated three weeks after application
In short: as §4

wild oat [18] = experiment: Test Example 5: herbicidal effect by foliage application, plastic box (Table 20, symbol I); type: in vivo, wild oat (Avena fatua); conditions: foliage application, 320 g/ha, evaluated three weeks after application
In short: as §4

blackgrass [19] = experiment: Test Example 5: herbicidal effect by foliage application, plastic box (Table 20, symbol J); type: in vivo, blackgrass (Alopecurus myosuroides); conditions: foliage application, 320 g/ha, evaluated three weeks after application
In short: as §4

Italian ryegrass [20] = experiment: Test Example 5: herbicidal effect by foliage application, plastic box (Table 20, symbol K); type: in vivo, Italian ryegrass (Lolium multiflorum); conditions: foliage application, 320 g/ha, evaluated three weeks after application
In short: as §4

windgrass [21] = experiment: Test Example 5: herbicidal effect by foliage application, plastic box (Table 20, symbol L); type: in vivo, windgrass (Apera spica-venti); conditions: foliage application, 320 g/ha, evaluated three weeks after application
In short: as §4

velvetleaf [22] = experiment: Test Example 5: herbicidal effect by foliage application, plastic box (Table 20, symbol M); type: in vivo, velvetleaf (Abutilon theophrasti); conditions: foliage application, 320 g/ha, evaluated three weeks after application
In short: as §4

redroot pigweed [23] = experiment: Test Example 5: herbicidal effect by foliage application, plastic box (Table 20, symbol N); type: in vivo, redroot pigweed (Amaranthus retroflexus); conditions: foliage application, 320 g/ha, evaluated three weeks after application
In short: as §4

lambsquarters [24] = experiment: Test Example 5: herbicidal effect by foliage application, plastic box (Table 20, symbol O); type: in vivo, lambsquarters (Chenopodium album); conditions: foliage application, 320 g/ha, evaluated three weeks after application
In short: as §4

chickweed [25] = experiment: Test Example 5: herbicidal effect by foliage application, plastic box (Table 20, symbol P); type: in vivo, common chickweed (Stellaria media); conditions: foliage application, 320 g/ha, evaluated three weeks after application
In short: as §4

false cleavers [26] = experiment: Test Example 5: herbicidal effect by foliage application, plastic box (Table 20, symbol Q); type: in vivo, false cleavers (Galium spurium); conditions: foliage application, 320 g/ha, evaluated three weeks after application
In short: as §4

persian speedwell [27] = experiment: Test Example 5: herbicidal effect by foliage application, plastic box (Table 20, symbol R); type: in vivo, Persian speedwell (Veronica persica); conditions: foliage application, 320 g/ha, evaluated three weeks after application
In short: as §4

CCCC(=O)Oc1c(C)nn(C)c(=O)c1-c1c(-c2ccc(F)cc2OC)sc2ccc(Cl)cc12 [2-096]
Herbicidal effect on A: late watergrass (grade 0-5) (late watergrass): 1 (Herbicidal rate of 5% or more and less than 20%) | Herbicidal effect on B: Japanese bulrush (grade 0-5) (Japanese bulrush): 3 (Herbicidal rate of 40% or more and less than 70%) | Herbicidal effect on C: oval-leafed pondweed (grade 0-5) (oval-leafed pondweed): 2 (Herbicidal rate of 20% or more and less than 40%) | herbicidal effect on H (barnyard grass), rating 0-5 (barnyard grass [1]): 3 (Herbicidal rate of 40% or more and less than 70%) | herbicidal effect on D (Chinese sprangletop), rating 0-5 (Chinese sprangletop): 1 (Herbicidal rate of 5% or more and less than 20%) | herbicidal effect on E (rice flat sedge), rating 0-5 (rice flat sedge): 3 (Herbicidal rate of 40% or more and less than 70%) | herbicidal effect rating, F: southern crabgrass (southern crabgrass [2]): 3 (Herbicidal rate of 40% or more and less than 70%) | herbicidal effect rating, G: green foxtail (green foxtail [3]): 3 (Herbicidal rate of 40% or more and less than 70%) | herbicidal effect rating, H: barnyard grass (barnyard grass [4]): 2 (Herbicidal rate of 20% or more and less than 40%) | herbicidal effect rating, I: wild oat (wild oat [5]): 0 (Herbicidal rate of 5% or less (almost no effect)) | herbicidal effect rating, J: blackgrass (blackgrass [6]): 0 (Herbicidal rate of 5% or less (almost no effect)) | herbicidal effect rating, K: Italian ryegrass (Italian ryegrass [7]): 0 (Herbicidal rate of 5% or less (almost no effect)) | herbicidal effect rating, L: windgrass (windgrass [8]): 0 (Herbicidal rate of 5% or less (almost no effect)) | herbicidal effect rating, M: velvetleaf (velvetleaf [9]): 0 (Herbicidal rate of 5% or less (almost no effect)) | herbicidal effect rating, N: redroot pigweed (redroot pigweed [10]): 5 (Herbicidal rate of 90% or more (almost completely withered)) | herbicidal effect rating, O: lambsquarters (lambsquarters [11]): 3 (Herbicidal rate of 40% or more and less than 70%) | herbicidal effect rating, P: chickweed (chickweed [12]): 4 (Herbicidal rate of 70% or more and less than 90%) | herbicidal effect rating, Q: false cleavers (false cleavers [13]): 0 (Herbicidal rate of 5% or less (almost no effect)) | herbicidal effect rating, R: persian speedwell (persian speedwell [14]): 0 (Herbicidal rate of 5% or less (almost no effect)) | herbicidal effect on F: southern crabgrass (southern crabgrass [15]): 3 (Herbicidal rate of 40% or more and less than 70%) | herbicidal effect on G: green foxtail (green foxtail [16]): 3 (Herbicidal rate of 40% or more and less than 70%) | herbicidal effect on H: barnyard grass (barnyard grass [17]): 4 (Herbicidal rate of 70% or more and less than 90%) | herbicidal effect on I: wild oat (wild oat [18]): 0 (Herbicidal rate of 5% or less (almost no effect)) | herbicidal effect on J: blackgrass (blackgrass [19]): 4 (Herbicidal rate of 70% or more and less than 90%) | herbicidal effect on K: Italian ryegrass (Italian ryegrass [20]): 0 (Herbicidal rate of 5% or less (almost no effect)) | herbicidal effect on L: windgrass (windgrass [21]): 4 (Herbicidal rate of 70% or more and less than 90%) | herbicidal effect on M: velvetleaf (velvetleaf [22]): 1 (Herbicidal rate of 5% or more and less than 20%) | herbicidal effect on N: redroot pigweed (redroot pigweed [23]): 3 (Herbicidal rate of 40% or more and less than 70%) | herbicidal effect on O: lambsquarters (lambsquarters [24]): 3 (Herbicidal rate of 40% or more and less than 70%) | herbicidal effect on P: chickweed (chickweed [25]): 5 (Herbicidal rate of 90% or more (almost completely withered)) | herbicidal effect on Q: false cleavers (false cleavers [26]): 4 (Herbicidal rate of 70% or more and less than 90%) | herbicidal effect on R: persian speedwell (persian speedwell [27]): 3 (Herbicidal rate of 40% or more and less than 70%)
